# According to US12533300B2, “Self-assembling peptides in the prevention and treatment of cavitated carious lesions” (Credentis AG, priority 2019, dated 2026):
# What was measured:
# [1] = Release profile of model substance Congo Red from dental materials into PBS (photometer, 500 nm); assay type: physicochemical
# Procedure: As well-known to the person skilled in the art, a release profile of an agent, i.e. fluoride or self-assembling peptide, depends on the matrix of the material (Mousavinasab et al., 2009, Dent Res J (Isfahan) 6(2):75-81). In the following experiment, the release profile of a model substance mimicking self-assembling peptide, Congo Red, was assessed after the incorporation into the dental material. The material was prepared and applied as per instructions for use (IFU), usually describing the use of 0.5-0.75 mL of the respective products. To mimic the saliva, Phosphate Buffered Saline (PBS) was used. PBS matches the osmolarity and ion concentrations of the human body—it is isotonic. To mimic the constant saliva flux, the applied amount was placed in a solution equal to 1 h saliva flux, which is about 20 mL. The diffusion of the material was assessed at 500 nm with a photometer. Release Profile a) Preparation of Varnish (Duraphat) and Paro Amin Fluor Gelée • Per suppliers IFU, it is recommend to add 0.5-1 mL of the varnish to a carious site. The concentration of Congo Red was chosen to lead a distinct signal in the UV Vis. • Place 12 mg Congo Red in 2 mL Eppendorf tube • Add 2 mL of the varnish directly into the tube with a syringe • Mix Congo Red and varnish vigorously until content uniformity is reached • Pick up product with syringe • Place 0.5-0.75 ml of the product on a microscopic slide as a thin film—as recommended per IFU • Let it air dry—as per IFU b) Preparation of Lonofil (Glass Ionomer Restorative Material) • Place 12 mg Congo Red directly in a dental cup • Add 2 spoons of lonofil Plus as per IFU • Add 2 drops of water and mix as per IFU • Place amount of product on microscopic slide c) Incubation Prepare the PBS Solution with 1% EtOH for preservation • Place slide in 50 ml centrifugation tube • Add 20 mL of PBS • Place on rotating wheel d) Measurement and Calculation • Directly decant 1 mL of incubated fluid into UV-Cell • Measure at 500 nm, control/blank=PBS with 1% EthOH subtract control w/o Congo Red from measured value
# [2] = Alkilzy et al., 2018; cited from earlier work
# [3] = Pulp capping with P11-4 solution under dental material; assay type: in vivo; conditions: exposed pulp covered with P11-4 solution (e.g., 100 μl, 10 mg/mL, pH 8) before Resin Composite
# Procedure: A cavity exposing the pulp is excavated due to dental caries. The pulp is covered with P11-4 solution (e.g., 100 μl, 10 mg/mL, pH 8) before placing of a dental material, e.g., Resin Composite according to the manufacturer's instructions (e.g., application in layers and light curing, as appropriate).
# [4] = Release profile of P11-4 from varnish and glass ionomer cement (280 nm); assay type: physicochemical
# Procedure: The material was prepared and applied as per instructions for use (IFU), usually describing the use of 0.5-0.75 mL of the respective products. To mimic the saliva, Phosphate Buffered Saline (PBS) was used. PBS matches the osmolarity and ion concentrations of the human body—it is isotonic. To mimic the constant saliva flux, the applied amount was placed in a solution equal to 1 h saliva flux, which is about 20 mL. The diffusion of the material was assessed at 500 nm with a photometer.
# Release Profile a) Preparation of Varnish (Duraphat) and Paro Amin Fluor Gelée • Per suppliers IFU, it is recommend to add 0.5-1 mL of the varnish to a carious site. The concentration of Congo Red was chosen to lead a distinct signal in the UV Vis. • Place 12 mg Congo Red in 2 mL Eppendorf tube • Add 2 mL of the varnish directly into the tube with a syringe • Mix Congo Red and varnish vigorously until content uniformity is reached • Pick up product with syringe • Place 0.5-0.75 ml of the product on a microscopic slide as a thin film—as recommended per IFU • Let it air dry—as per IFU b) Preparation of Lonofil (Glass Ionomer Restorative Material) • Place 12 mg Congo Red directly in a dental cup • Add 2 spoons of lonofil Plus as per IFU • Add 2 drops of water and mix as per IFU • Place amount of product on microscopic slide c) Incubation
# Prepare the PBS Solution with 1% EtOH for preservation • Place slide in 50 ml centrifugation tube • Add 20 mL of PBS • Place on rotating wheel d) Measurement and Calculation • Directly decant 1 mL of incubated fluid into UV-Cell • Measure at 500 nm, control/blank=PBS with 1% EthOH subtract control w/o Congo Red from measured value
# Example 7 was in essence carried out as Example 6, but with the self-assembling peptide P11-4, if not otherwise described. 12 mg of P11-4 (credentis AG), in monomeric form, were added to either the varnish Duraphat (Sample ID: AP) or the glass ionomer cement Aqua lonofil Plus (Sample ID BP) in the amounts and under the conditions described above. The incubation was carried out in a static manner at room temperature. Measurement was at 280 nm, and the control value for buffer without peptide was subtracted from the measured value.
"Time course of Congo Red release from glass ionomer cement ([1]; Aqua Ionofil Plus, FIG. 4A)","Speed of Congo Red release from varnish relative to glass ionomer cement ([1]; Duraphat versus Aqua Ionofil Plus, FIG. 4A)","Release of Congo Red from paro Amin Fluor Gelée ([1]; Sample 2, used for comparison, 20 mL PBS with 1% EtOH, FIG. 4B)","Release of Congo Red from varnish Duraphat ([1]; sample A1, 12 mg Congo Red in 2 mL varnish, 20 mL PBS with 1% EtOH, FIG. 4A)","Release of Congo Red from glass ionomer cement Aqua Ionofil Plus ([1]; sample B1, 12 mg Congo Red, 20 mL PBS with 1% EtOH, FIG. 4A)",Compound,"Effect on early carious lesions in combination with fluoride, compared to fluoride alone [2]",Pulp symptoms (pulpitis) after pulp capping [3],"Speed of P11-4 release from varnish relative to glass ionomer cement ([4]; Duraphat versus Aqua Ionofil Plus, FIG. 4C)","Release of P11-4 from varnish Duraphat ([4]; sample AP, 12 mg monomeric P11-4, static incubation at room temperature, FIG. 4C)","Release of P11-4 from glass ionomer cement Aqua Ionofil Plus ([4]; sample BP, 12 mg monomeric P11-4, static incubation at room temperature, FIG. 4C)","Amount of released peptide over time ([4]; varnish and glass ionomer cement, measured for several days)"
constant and increases with time,quicker,released,released,released,"Nc1c(/N=N/c2ccc(-c3ccc(/N=N/c4cc(S(=O)(=O)O)c5ccccc5c4N)cc3)cc2)cc(S(=O)(=O)O)c2ccccc12 [Congo red, Congo Red]",–,–,–,–,–,–
–,–,–,–,–,"P11-4: self-assembling peptide, sequence QQRFEWEFEQQ (P11-4)",additional effect,remains symptoms free,quicker,slowly and substantially constantly released,slowly and substantially constantly released,increases with time
